Measurements published in patent US9469615B2, “Quinoxalines and AZA-quinoxalines as CRTH2 receptor modulators” (Merck Sharp & Dohme Corp., priority 2010, dated 2016).

What follows are compounds tested against T1, hCRTH2 (Homo sapiens, UniProt Q9Y5Y4) (assay: Radioligand binding assay ([3H]PGD2 competition, HEK-hCRTH2 membranes)). Settings: [3H]PGD2 competition, Table B.
T1 construct: expressed in transfected cells; host or cells: HEK (human embryonic kidney) cells expressing hCRTH2; membrane preparation
T1 sequence (Q9Y5Y4 1-395): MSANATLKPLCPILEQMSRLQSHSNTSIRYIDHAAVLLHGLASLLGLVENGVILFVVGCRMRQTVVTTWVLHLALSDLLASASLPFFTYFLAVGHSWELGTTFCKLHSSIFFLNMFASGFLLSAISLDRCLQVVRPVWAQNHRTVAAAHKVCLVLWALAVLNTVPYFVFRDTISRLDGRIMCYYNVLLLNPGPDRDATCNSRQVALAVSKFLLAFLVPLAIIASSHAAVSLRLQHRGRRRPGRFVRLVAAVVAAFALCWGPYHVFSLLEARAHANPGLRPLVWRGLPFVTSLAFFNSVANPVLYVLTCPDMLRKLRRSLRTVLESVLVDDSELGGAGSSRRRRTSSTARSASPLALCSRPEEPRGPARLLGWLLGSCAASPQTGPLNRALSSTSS
Procedure, shortened: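 Filter-bound radioactivity was counted by scintillation after 60 min incubations at room temperature. Membranes (8-20 μg) from HEK cells expressing hCRTH2 competed test ligands against 3.0 nM [3H]PGD2 in Tris-HCl pH 7.4 buffer with EDTA and 2 mM MnCl2; 10 μM PGD2 set non-specific binding.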

Ki, 201 to 700 nM:
C[C@@H](NC(=O)c1ccc2nc(-c3ccc(Cl)cc3)c(CCCc3cccc(CC(=O)O)c3)nc2c1)c1ccc(F)cc1 [compound 545, (R)-2-(3-(3-(3-(4-chlorophenyl)-7-((1-(4-fluorophenyl)ethyl)carbamoyl)quinoxalin-2-yl)propyl)phenyl)acetic acid]
O=C(N[C@H]1CCOc2ccccc21)c1ccc2nc(-c3ccc(F)cc3)c(CCCC(F)(F)C(=O)O)nc2c1 [compound 548, (S)-5-(7-(chroman-4-ylcarbamoyl)-3-(4-fluorophenyl)quinoxalin-2-yl)-2,2-difluoro-pentanoic acid]

Ki, 0.1 to 2 nM:
O=C(O)CCCCc1nc2cc(C(=O)N3CC[C@H](c4ccc(F)cc4)C3)ccc2nc1-c1ccc(Cl)cc1 [compound 559, (R)-5-(3-(4-chlorophenyl)-7-(3-(4-fluorophenyl)pyrrolidine-1-carbonyl)quinoxalin-2-yl)pentanoic acid]
O=C(O)CCCCc1nc2cc(C(=O)N3CC[C@@H](c4ccc(F)cc4)C3)ccc2nc1-c1ccc(Cl)cc1 [compound 560, (S)-5-(3-(4-chlorophenyl)-7-(3-(4-fluorophenyl)pyrrolidine-1-carbonyl)quinoxalin-2-yl)pentanoic acid]
O=C(O)CCCCc1nc2cc(C(=O)NC3CCCOc4ccccc43)ccc2nc1-c1ccc(Cl)cc1 (centres unmarked) [compound 561, 5-(3-(4-chlorophenyl)-7-((2,3,4,5-tetrahydrobenzo[b]oxepin-5-yl)carbamoyl)quinoxalin-2-yl)pentanoic acid]
O=C(O)CCCCc1nc2cc(C(=O)N[C@H]3COc4ccccc43)ccc2nc1-c1ccc(Cl)cc1 [compound 562, (R)-5-(3-(4-chlorophenyl)-7-((2,3-dihydrobenzofuran-3-yl)carbamoyl)quinoxalin-2-yl)pentanoic acid]
O=C(O)CCCCc1nc2cc(C(=O)N[C@@H]3COc4ccccc43)ccc2nc1-c1ccc(Cl)cc1 [compound 563, (S)-5-(3-(4-chlorophenyl)-7-((2,3-dihydrobenzofuran-3-yl)carbamoyl)quinoxalin-2-yl)pentanoic acid]

Ki, 20.1 to 200 nM:
O=C(O)Cc1cccc(CCCc2nc3cc(C(=O)N4CCN(c5ccccc5)CC4)ccc3nc2-c2ccc(Cl)cc2)c1 [compound 543, 2-(3-(3-(3-(4-chlorophenyl)-7-(4-phenylpiperazine-1-carbonyl)quinoxalin-2-yl)propyl)phenyl)acetic acid]
CN(Cc1ccc(F)cc1)C(=O)c1ccc2nc(-c3ccc(Cl)cc3)c(CCCc3cccc(CC(=O)O)c3)nc2c1 [compound 544, 2-(3-(3-(3-(4-chlorophenyl)-7-((4-fluorobenzyl) (methyl)carbamoyl)quinoxalin-2-yl)propyl)phenyl)acetic acid]
O=C(O)Cc1cccc(CCCc2nc3cc(C(=O)NCc4ccc(Cl)cc4)ccc3nc2-c2ccc(Cl)cc2)c1 [compound 546, 2-(3-(3-(7-((4-chlorobenzyl)carbamoyl)-3-(4-chlorophenyl)quinoxalin-2-yl)propyl)phenyl) acetic acid]
O=C(N[C@@H]1CCOc2ccccc21)c1ccc2nc(-c3ccc(F)cc3)c(CCCC(F)(F)C(=O)O)nc2c1 [compound 547]

Ki, 2.1 to 20 nM:
O=C(O)CCCCc1nc2cc(C(=O)N[C@@H]3CCOc4cc(F)c(F)cc43)ccc2nc1-c1ccc(Cl)cc1 [compound 533, (R)-5-(3-(4-chlorophenyl)-7-((6,7-difluorochroman-4-yl)carbamoyl)quinoxalin-2-yl)pentanoic acid]
O=C(O)CCCCc1nc2cc(C(=O)N[C@H]3CCOc4ccc(F)cc43)ccc2nc1-c1ccc(Cl)cc1 [compound 534, (S)-5-(3-(4-chlorophenyl)-7-((6-fluorochroman-4-yl)carbamoyl)quinoxalin-2-yl)pentanoic acid]
C[C@H](NC(=O)c1ccc2nc(-c3ccc(F)cc3)c(CCCCC(=O)O)nc2c1)c1ccc2ccccc2c1 [compound 535, (S)-5-(3-(4-fluorophenyl)-7-((1-(naphthalen-2-yl)ethyl)carbamoyl)quinoxalin-2-yl)pentanoic acid]
C[C@H](NC(=O)c1ccc2nc(-c3ccc(F)cc3)c(CCCCC(=O)O)nc2c1)c1cccc2ccccc12 [compound 536, (S)-5-(3-(4-fluorophenyl)-7-((1-(naphthalen-1-yl)ethyl)carbamoyl)quinoxalin-2-yl)pentanoic acid]
O=C(O)CCCCc1nc2cc(C(=O)N[C@@H]3CCOc4ccc(F)cc43)ccc2nc1-c1ccc(F)cc1 [compound 537, (R)-5-(7((6-fluorochroman-4-yl)carbamoyl)-3-(4-fluorophenyl)quinoxalin-2-yl)pentanoic acid]
O=C(O)CCCCc1nc2cc(C(=O)N[C@@H]3CCOc4cc(F)c(F)cc43)ccc2nc1-c1ccc(F)cc1 [compound 538, (R)-5-(7-((6,7-difluorochroman-4-yl)carbamoyl)-3-(4-fluorophenyl)quinoxalin-2-yl)pentanoic acid]
C[C@@H]1CN(c2ccc(Cl)cc2)CCN1C(=O)c1ccc2nc(-c3ccc(Cl)cc3)c(CCCCC(=O)O)nc2c1 [compound 539, (R)-5-(3-(4-chlorophenyl)-7-(4-(4-chlorophenyl)-2-methylpiperazine-1-carbonyl)quinoxalin-2-yl)pentanoic acid]
C[C@@H]1CN(c2ccc(Cl)cc2)CCN1C(=O)c1ccc2nc(-c3ccc(F)cc3)c(CCCCC(=O)O)nc2c1 [compound 540, (R)-5-(7-(4-(4-chlorophenyl)-2-methylpiperazine-1-carbonyl)-3-(4-fluorophenyl)quinoxalin-2-yl)pentanoic acid]
C[C@H]1CN(c2ccc(Cl)cc2)CCN1C(=O)c1ccc2nc(-c3ccc(Cl)cc3)c(CCCCC(=O)O)nc2c1 [compound 541, (S)-5-(3-(4-chlorophenyl)-7-(4-(4-chlorophenyl)-2-methylpiperazine-1-carbonyl)quinoxalin-2-yl)pentanoic acid]
C[C@H]1CN(c2ccc(Cl)cc2)CCN1C(=O)c1ccc2nc(-c3ccc(F)cc3)c(CCCCC(=O)O)nc2c1 [compound 542, (S)-5-(7-(4-(4-chlorophenyl)-2-methylpiperazine-1-carbonyl)-3-(4-fluorophenyl)quinoxalin-2-yl)pentanoic acid]
C[C@H]1CN(c2ccccc2)CCN1C(=O)c1ccc2nc(-c3ccccc3)c(CCCCC(=O)O)nc2c1 [compound 549, (S)-5-(7-(2-methyl-4-phenylpiperazine-l-carbonyl)-3-phenylquinoxalin-2-yl)pentanoic acid]
C[C@@H]1CN(c2ccc(Cl)cc2)CCN1C(=O)c1ccc2nc(-c3ccccc3)c(CCCCC(=O)O)nc2c1 [compound 550, (R)-5-(7-(4-(4-chlorophenyl)-2-methylpiperazine-1-carbonyl)-3-phenyl-quinoxa1in-2-yl)pentanoic acid]
C[C@H]1CN(c2ccc(Cl)cc2)CCN1C(=O)c1ccc2nc(-c3ccccc3)c(CCCCC(=O)O)nc2c1 [compound 551, (S)-5-(7-(4-(4-chlorophenyl)-2-methylpiperazine-1-carbonyl)-3-phenyl-quinoxalin-2-yl)pentanoic acid]
O=C(O)CCCCc1nc2cc(C(=O)N3CCN(c4ncccn4)CC3)ccc2nc1-c1ccc(Cl)cc1 [compound 552, 5-(3-(4-chlorophenyl)-7-(4-(pyrimidin-2-yl)piperazine-1-carbonyl)quinoxalin-2-yl)pentanoic acid]
O=C(O)CCCCc1nc2cc(C(=O)N3CCN(c4ccccc4)C(=O)C3)ccc2nc1-c1ccc(Cl)cc1 [compound 553, 5-(3-(4-chlorophenyl)-7-(3-oxo-4-phenylpiperazine-1-carbonyl)quinoxalin-2-yl)pentanoic acid]
O=C(O)CCCCc1nc2cc(C(=O)N3CCN(c4ccccn4)CC3)ccc2nc1-c1ccc(Cl)cc1 [compound 554, 5-(3-(4-chlorophenyl)-7-(4-(pyridin-2-yl)piperazine-1-carbonyl)quinoxalin-2-yl)pentanoic acid]
O=C(O)CCCCc1nc2cc(C(=O)N3CCN(Cc4ccccc4)CC3)ccc2nc1-c1ccc(Cl)cc1 [compound 555, 5-(7-(4-benzylpiperazine-1-carbonyl)-3-(4-chlorophenyl)quinoxalin-2-yl)pentanoic acid]
CC1(C)CCC(NC(=O)c2ccc3nc(-c4ccc(Cl)cc4)c(CCCCC(=O)O)nc3c2)c2ccccc21 (centres unmarked) [compound 556]
O=C(O)CCCCc1nc2cc(C(=O)N3CCc4cc(F)ccc4C3)ccc2nc1-c1ccc(Cl)cc1 [compound 557, 5-(3-(4-chlorophenyl)-7-(6-fluoro-1,2,3,4-tetrahydroisoquinoline-2-carbonyl)quinoxalin-2-yl)pentanoic acid]
CC1(C)c2ccc(F)cc2CN1C(=O)c1ccc2nc(-c3ccc(Cl)cc3)c(CCCCC(=O)O)nc2c1 [compound 558, 5-(3-(4-chlorophenyl)-7-(5-fluoro-1,1-dimethylisoindoline-2-carbonyl)quinoxalin-2-yl)pentanoic acid]
CC1(C)CC(NC(=O)c2ccc3nc(-c4ccc(Cl)cc4)c(CCCCC(=O)O)nc3c2)c2ccccc2O1 (centres unmarked) [compound 564, 5-(3-(4-chlorophenyl)-7-((2,2-dimethylchroman-4-yl)carbamoyl)quinoxalin-2-yl)pentanoic acid]
